The source of these data is the PolyMetriX glass transition set.

On to `*C(=O)c1ccc2c(c1)C(=O)N(c1ccc(Oc3ccc(C(=O)c4ccc5cc(C(=O)c6ccc(Oc7ccc(N8C(=O)c9ccc(*)cc9C8=O)cc7)cc6)ccc5c4)cc3)cc1)C2=O` (repeat unit), for which the glass transition temperature stood at 246.00 °C.
To `*C(=O)c1ccc2c(c1OCc1ccccc1[N+](=O)[O-])C(=O)N(c1ccc(Oc3ccc(N4C(=O)c5ccc(*)c(OCc6ccccc6[N+](=O)[O-])c5C4=O)cc3)cc1)C2=O` (repeat unit) belongs 198.00 °C; to `*COc1ccc(C(C)(C)c2ccc(O*)cc2)cc1` (repeat unit), 90.00 °C.
Compound `*OP(=O)(Oc1ccc(C(C)(C)c2ccc(*)cc2)cc1)Oc1c(Cl)c(Cl)c(Cl)c(Cl)c1Cl` (repeat unit) showed a glass transition temperature of 130.00 °C.
To `*OP(=O)(Oc1ccc(C(C)(C)c2ccc(*)cc2)cc1)Oc1c(Cl)cccc1Cl` (repeat unit) belongs 96.00 °C; to `*OP(=O)(Oc1ccccc1)Oc1ccc(C(C)(C)c2ccc(*)cc2)cc1` (repeat unit), 74.50 °C; to `*OS(=O)(=O)c1cccc(S(=O)(=O)Oc2ccc(C(C)(C)c3ccc(*)cc3)cc2)c1` (repeat unit), 124.00 °C.
To `*O[Si](Oc1ccc(C2(c3ccc(*)c(C)c3)c3ccccc3-c3ccccc32)cc1C)(c1ccccc1)c1ccccc1` (repeat unit) belongs 171.00 °C; to `*Oc1ccc(-c2ccc(-c3ccc(Oc4ccc(C(C)(C)c5ccc(*)cc5)cc4)c(C(F)(F)F)c3)cc2)cc1C(F)(F)F` (repeat unit), 192.00 °C; to `*Oc1ccc(/C=C/C(=O)c2ccc(Oc3ccc(C(C)(C)c4ccc(*)cc4)cc3)cc2)cc1` (repeat unit), 152.00 °C.
To `*Oc1ccc(/C=C/C(=O)c2ccc(Oc3ccc(C(C)(c4ccccc4)c4ccc(*)cc4)cc3)cc2)cc1` (repeat unit) belongs 167.00 °C.
With `*Oc1ccc(/C=N/N=C/c2ccc(Oc3ccc(C(C)(C)c4ccc(*)cc4)cc3)cc2)cc1` (repeat unit), the glass transition temperature was determined as 163.00 °C.
To `*Oc1ccc(C(C)(C)c2ccc(Oc3ccc(C(=O)C(=O)c4ccc(*)cc4)cc3)cc2)cc1` (repeat unit) belongs 152.00 °C; to `*Oc1ccc(C2(c3ccc(Oc4ccc(/C=N/N=C/c5ccc(*)cc5)cc4)cc3)c3ccccc3-c3ccccc32)cc1` (repeat unit), 227.00 °C; to `*Oc1ccc(S(=O)(=O)c2ccc(-c3ccc(*)cc3)cc2)cc1` (repeat unit), 269.00 °C.
To `*Oc1ccc(S(=O)(=O)c2ccc(Oc3ccc(/C=N/c4ccc(Oc5ccc(/N=C/c6ccc(*)cc6)cc5)cc4)cc3)cc2)cc1` (repeat unit) belongs 162.00 °C.
To `*Oc1ccc(S(=O)(=O)c2cccc3c(S(=O)(=O)c4ccc(Oc5ccc(-c6ccc(*)cc6)cc5)cc4)cccc23)cc1` (repeat unit) belongs 248.00 °C.
In turn, `*c1c(F)c(F)c(-c2c(F)c(F)c(Oc3ccc(-c4nn(*)c(=O)c5ccccc45)c(F)c3)c(F)c2F)c(F)c1F` (repeat unit) had a glass transition temperature of 253.00 °C.
To `*c1cc(C(c2ccc(OCCN(c3ccccc3)c3ccc(/C=C/C4=CC(=C(/C#N)S(C)(=O)=O)/CC(C)(C)C4)cc3)c(N3C(=O)c4ccc(Oc5ccc6c(c5)C(=O)N(*)C6=O)cc4C3=O)c2)(C(F)(F)F)C(F)(F)F)ccc1OCCN(c1ccccc1)c1ccc(/C=C/C2=CC(=C(/C#N)S(C)(=O)=O)/CC(C)(C)C2)cc1` (repeat unit) belongs 234.00 °C; to `*c1ccc(-c2ccc(Oc3ccc(C4(C)CC(C)(C)c5ccc(Oc6ccc(-c7ccc(-n8c(=O)c9cc%10c(=O)n(*)c(=O)c%10cc9c8=O)cc7)cc6C(F)(F)F)cc54)cc3)c(C(F)(F)F)c2)cc1` (repeat unit), 265.00 °C.
To `*c1ccc(Oc2cc3ccccc3cc2Oc2ccc(-n3c(=O)c4cc5c(=O)n(*)c(=O)c5cc4c3=O)cc2)cc1` (repeat unit) belongs 316.00 °C; to `*c1ccc(Oc2ccc(-c3cc(-c4ccccc4)c4cc(-c5ccc6nc(*)cc(-c7ccccc7)c6c5)ccc4n3)cc2)cc1` (repeat unit), 305.00 °C; to `*c1ccc(Oc2ccc(-c3cc(-c4ccccc4)c4cc(C5(c6ccc7nc(*)cc(-c8ccccc8)c7c6)c6ccccc6-c6ccccc65)ccc4n3)cc2)cc1` (repeat unit), 315.00 °C.
To `*c1ccc(Oc2ccc(-c3cc(-c4ccccc4)c4cc5c(-c6ccccc6)cc(*)nc5cc4n3)cc2)cc1` (repeat unit) belongs 380.50 °C; to `*c1ccc(Oc2ccc(-c3cc(-c4ccccc4)c4cc5nc(*)cc(-c6ccccc6)c5cc4n3)cc2)cc1` (repeat unit), 365.00 °C; to `*c1ccc(Oc2ccc(-c3ccc(-c4ccc(-c5ccc(Oc6ccc(-c7c8c(c(*)c9ccccc79)C(=O)N(c7ccccc7)C8=O)cc6)c(C(F)(F)F)c5)cc4)cc3)cc2C(F)(F)F)cc1` (repeat unit), 334.00 °C.
On to `*c1ccc(Oc2ccc(-c3ccc(-c4ccc(Oc5ccc(-c6c7c(c(*)c8ccccc68)C(=O)N(c6ccccc6)C7=O)cc5)c(C(F)(F)F)c4)cc3)cc2C(F)(F)F)cc1` (repeat unit), for which the glass transition temperature is 317.00 °C.
To `*c1ccc(Oc2ccc(-c3ccc(Oc4ccc(-c5cnc6cc(-c7ccc8nc(*)cnc8c7)ccc6n5)cc4)cc3)cc2)cc1` (repeat unit) belongs 213.00 °C; to `*c1ccc(Oc2ccc(-c3ccc(Oc4ccc(-c5nnc(*)c6c(-c7ccc(F)cc7)c(-c7ccc(F)cc7)c(-c7ccc(F)cc7)c(-c7ccc(F)cc7)c56)cc4)cc3)cc2)cc1` (repeat unit), 320.00 °C.
In turn, `*c1ccc(Oc2ccc(-c3ccc(Oc4ccc(N5C(=O)CC(=O)N(*)C5=S)cc4)cc3)cc2)cc1` (repeat unit) registered a glass transition temperature of 158.50 °C.
With `*c1ccc(Oc2ccc(-c3cccc(-c4ccc(Oc5ccc(-c6c7c(c(*)c8ccccc68)C(=O)N(c6ccccc6)C7=O)cc5)c(C(F)(F)F)c4)c3)cc2C(F)(F)F)cc1` (repeat unit), the glass transition temperature came to 271.00 °C.
To `*c1ccc(Oc2ccc(-c3cnc4cc5nc(*)cnc5cc4n3)cc2)cc1` (repeat unit) belongs 353.00 °C.
To `*c1ccc(Oc2ccc(-c3cnc4cc5ncc(*)nc5cc4n3)cc2)cc1` (repeat unit) belongs 353.00 °C; to `*c1ccc(Oc2ccc(-c3cnc4ccc(-c5ccc6ncc(*)nc6c5)cc4n3)cc2)cc1` (repeat unit), 305.00 °C; to `*c1ccc(Oc2ccc(-n3c(=O)c4c(Oc5ccc(OC)cc5)c5c(=O)n(*)c(=O)c5c(Oc5ccc(OC)cc5)c4c3=O)cc2)cc1` (repeat unit), 303.50 °C.
For the compound `*c1ccc(Oc2ccc(-n3c(=O)c4c(Oc5ccc(OCCCC)cc5)c5c(=O)n(*)c(=O)c5c(Oc5ccc(OCCCC)cc5)c4c3=O)cc2)cc1` (repeat unit), the glass transition temperature is 269.50 °C.
Take `*c1ccc(Oc2ccc(-n3c(=O)c4cc5c(=O)n(-c6ncc(*)s6)c(=O)c5cc4c3=O)cc2)cc1` (repeat unit): the glass transition temperature came to 328.80 °C.
To `*c1ccc(Oc2ccc(-n3nc(-c4ccccc4)cc3-c3cccc(-c4cc(-c5ccccc5)nn4*)c3)cc2)cc1` (repeat unit) belongs 232.00 °C.
To `*c1ccc(Oc2ccc(C(C)(C)c3ccc(Oc4ccc(-c5ccc(*)s5)cc4C(F)(F)F)cc3)cc2)c(C(F)(F)F)c1` (repeat unit) belongs 130.00 °C; to `*c1ccc(Oc2ccc(C(C)(C)c3ccc(Oc4ccc(-c5cccc(*)n5)cc4C(F)(F)F)cc3)cc2)c(C(F)(F)F)c1` (repeat unit), 125.00 °C; to `*c1ccc(Oc2ccc(C(C)(C)c3ccc(Oc4ccc(-c5nc(-c6ccccn6)nnc5*)cc4)cc3)cc2)cc1` (repeat unit), 220.00 °C.
To `*c1ccc(Oc2ccc(C(C)(C)c3ccc(Oc4ccc(-c5ncc(*)o5)cc4C(F)(F)F)cc3)cc2)c(C(F)(F)F)c1` (repeat unit) belongs 185.00 °C.
Compound `*c1ccc(Oc2ccc(C(C)(C)c3ccc(Oc4ccc(-c5nnc(*)c6c(-c7ccc(F)cc7)c(-c7ccc(F)cc7)c(-c7ccc(F)cc7)c(-c7ccc(F)cc7)c56)cc4)cc3)cc2)cc1` (repeat unit) returned a glass transition temperature of 282.00 °C.
To `*c1ccc(Oc2ccc(C(c3ccc(Oc4ccc(-c5nc(*)nc(-c6ccccc6)n5)cc4)cc3)(C(F)(F)F)C(F)(F)F)cc2)cc1` (repeat unit) belongs 241.00 °C.
To `*c1ccc(Oc2ccc(P(=O)(c3ccccc3)c3ccc(Oc4ccc(-c5cc(*)[nH]n5)cc4)cc3)cc2)cc1` (repeat unit) belongs 296.00 °C; to `*c1ccc(Oc2ccc(P(=O)(c3ccccc3)c3ccc(Oc4ccc(-c5cc(*)n(-c6ccccc6)n5)cc4)cc3)cc2)cc1` (repeat unit), 239.00 °C.
On to `*c1ccc(Oc2ccc(P(=O)(c3ccccc3)c3ccc(Oc4ccc(-c5nc(-c6ccccc6)[nH]c5*)cc4)cc3)cc2)cc1` (repeat unit), for which the glass transition temperature worked out at 318.00 °C.
To `*c1ccc(Oc2ccc(S(=O)(=O)c3ccc(Oc4ccc(-c5nc6ccccc6n5-c5ccc(-n6c(*)nc7ccccc76)cc5)cc4)cc3)cc2)cc1` (repeat unit) belongs 270.00 °C; to `*c1cccc(P(=O)(c2ccccc2)c2cccc(N3C(=O)c4ccc(NC(=O)OCCOc5ccc(C(C)(C)c6ccc(OCCOC(=O)Nc7ccc8c(c7)C(=O)N(*)C8=O)cc6)cc5)cc4C3=O)c2)c1` (repeat unit), 220.00 °C; to `*c1cccc(P(C)(=O)c2cccc(N3C(=O)c4ccc(NC(=O)OCCOc5ccc(C(C)(C)c6ccc(OCCOC(=O)Nc7ccc8c(c7)C(=O)N(*)C8=O)cc6)cc5)cc4C3=O)c2)c1` (repeat unit), 211.00 °C.
To `*c1nnc(-c2ccc(Oc3ccc(C(c4ccc(Oc5ccc(*)c6ccccc56)cc4)(C(F)(F)F)C(F)(F)F)cc3)c3ccccc23)o1` (repeat unit) belongs 220.00 °C.
